Activity calls are given as the source filed them.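 How the source made its calls: active means compounds whose mean EC50, the dose giving half the maximal reporter activation, is at or below a set limit; inactive means the rest.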
target: CHO-CHOP luciferase reporter, UPR activation, luminescence; test: activators of PERK-eIF2a-CHOP UPR arm, confirmation, CHO-CHOP cells, luciferase luminescence (AID 489024);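 further: compounds added alone to reporter cells with no tunicamycin stress co-treatment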

Q: For `Cc1cccc(C)c1NC(=O)C(Cl)C(=O)c1ccccc1` (stereo not given), which EC50 is on record?
A: 19.3 µM

Q: With `O=C(C[C@H]1C[C@H](C(=O)N2CCCCC2)[C@@]2(CCc3ccccc3)c3[nH]c4ccc(Cl)cc4c3CCN2C1=O)NCCC1=CCCCC1` as the molecule, how does the EC50 read?
A: inactive

Q: For `CCc1cccc2c(C(=O)CCl)c[nH]c12`, which EC50 is on record?
A: 15.7 µM

Q: `CCn1c(O)c(C2=c3ccccc3=NC2=O)c2cc(Br)ccc21` was tested. Which EC50 did it give?
A: 15.4 µM

Q: For `Cc1ccc(NC(=O)c2ccc(N/N=C/c3cccc(O)c3)c([N+](=O)[O-])c2)cc1`, which EC50 is on record?
A: 8.03 µM

Q: Which EC50 does the source give for `CCOC(=O)C(=Cc1ccc(F)cc1)C(=O)OCC` here?
A: > 80 µM (inactive)

Q: Which EC50 does the source give for `Cc1cc(NC(=O)c2cc(-c3ccccn3)nc3ccc(Br)cc23)no1` here?
A: > 80 µM (inactive)

Q: Which EC50 does the source give for `Cn1nc(C(F)(F)F)c(/C=N/OC(=O)c2ccccc2)c1SCc1ccccc1Cl` here?
A: inactive

Q: `C=CCN=c1scc(-c2ccco2)n1/N=C/c1ccc(O)c(O)c1O` was tested. Which EC50 did it give?
A: inactive

Q: `c1ccc(CSC2=NNC(c3ccccn3)S2)cc1` (stereo not given) was tested. Which EC50 did it give?
A: 4.29 µM

Q: `COC(=O)c1c(NC(=O)c2ccc([N+](=O)[O-])o2)sc2c1CCN(C(C)C)C2` was tested. Which EC50 did it give?
A: 1.76 µM

Q: With `Cc1cc(C(=O)CCl)c(C)n1CCc1ccc(F)cc1` as the molecule, how does the EC50 read?
A: 7.77 µM

Q: `OCCNc1nc(Nc2ccc(Cl)c(Cl)c2)nc2ccccc12` was tested. Which EC50 did it give?
A: 11.7 µM

Q: For `COC(=O)Oc1ccc(/C=C/C(=O)OC(C)C)cc1OC(=O)OC`, which EC50 is on record?
A: 14 µM

Q: Which EC50 does the source give for `O=C(CCl)Nc1ccc(-c2ccccc2)cc1` here?
A: > 80 µM (inactive)

Q: `COc1ccc(CCN2CCC(Nc3nc4ccccc4n3Cc3ccc(F)cc3)CC2)cc1` was tested. Which EC50 did it give?
A: 9.69 µM

Q: For `CC1CCN(Cc2c(C(=O)N/N=C/c3ccc(C(C)(C)C)cc3)nnn2-c2nonc2N)CC1`, which EC50 is on record?
A: 8.4 µM

Q: How did the EC50 turn out when `CCOC(=O)C(=Cc1ccc(-n2ccnc2)cc1)C(=O)OCC` was run?
A: 9.57 µM

Q: Which EC50 does the source give for `CC(C)(C)C(=O)NC(=S)NNC(=O)c1ccc(-c2ccccc2)cc1` here?
A: 12.9 µM

Q: `Oc1c(Cl)cc(CN2CCOCC2)c2cccnc12` was tested. Which EC50 did it give?
A: 5.93 µM

Q: `CN(/N=C\c1ccc(O)c(O)c1)c1nc(-c2ccccc2)cc(-c2ccccc2)n1` was tested. Which EC50 did it give?
A: 1.32 µM

Q: Which EC50 does the source give for `COc1ccc(N=c2oc3c(OC)cccc3cc2C(=O)NCc2ccco2)c(OC)c1` here?
A: inactive

Q: Which EC50 does the source give for `O=[N+]([O-])c1ccc(Sc2nnnn2-c2ccccc2)nc1` here?
A: > 80 µM (inactive)

Q: Which EC50 does the source give for `O=C(COc1ccc(/C=N/NC(=O)c2cc3ccccc3o2)cc1Br)Nc1ccccc1` here?
A: 3.83 µM

Q: For `C=CCNC(=S)N/N=C(\C)c1ccccn1`, which EC50 is on record?
A: 2.5 µM

Q: `C/C(=N\NC(=O)c1cccc2ccccc12)c1ccccn1` was tested. Which EC50 did it give?
A: 3.22 µM

Q: With `CN(C)CC(CCC(CN(C)C)C(O)(c1ccccc1)c1ccccc1)C(O)(c1ccccc1)c1ccccc1` (stereo not given) as the molecule, how does the EC50 read?
A: 7.9 µM

Q: How did the EC50 turn out when `Cc1ccc(NC(=O)COc2ccc(/C=C3/SC(=Nc4ccccc4)N(Cc4cccnc4)C3=O)cc2)cc1` was run?
A: inactive

Q: `COc1ccc(CCNC(=O)c2coc(=O)c(Br)c2)cc1` was tested. Which EC50 did it give?
A: 7.26 µM

Q: For `COc1ccccc1-c1cc(C(F)(F)F)nc(S(C)(=O)=O)n1`, which EC50 is on record?
A: 9.21 µM

Q: `COc1cc(OC)cc(C(=O)NC(=S)Nc2cc3oc4ccccc4c3cc2OC)c1` was tested. Which EC50 did it give?
A: inactive

Q: Which EC50 does the source give for `COc1ccc(-c2csc3nc(-c4ccc(C)cc4)oc(=O)c23)cc1OC` here?
A: > 80 µM (inactive)

Q: For `COc1cc(/C=C2\C(=O)ON=C2c2ccc(Cl)cc2)ccc1O`, which EC50 is on record?
A: 11.8 µM

Q: With `O=C(NCCc1ccc(F)cc1)c1coc(=O)c(Br)c1` as the molecule, how does the EC50 read?
A: 9.53 µM

Q: Which EC50 does the source give for `Cc1cc(C(=O)CCl)c(C)n1CCc1ccc(Cl)cc1` here?
A: 7.15 µM

Q: For `O=C(/C=C/Sc1ccc(C(F)(F)F)cn1)c1ccccc1`, which EC50 is on record?
A: 7.85 µM

Q: How did the EC50 turn out when `CC(C)(C)c1ccc(/C=C(\c2nc3ccccc3[nH]2)S(=O)(=O)c2ccccc2)cc1` was run?
A: 7.17 µM

Q: For `O=C(/C=C\c1ccccc1OC(=O)c1ccccc1F)c1cc2ccccc2o1`, which EC50 is on record?
A: 14 µM

Q: For `CCOc1cc(/C=C2/C(=O)ON=C2C)ccc1OCc1ccccc1F`, which EC50 is on record?
A: 15.9 µM

Q: Which EC50 does the source give for `Cc1ccc(Cc2cnc(NC(=O)/C(C#N)=C/c3ccc(-c4ccc([N+](=O)[O-])cc4)o3)s2)cc1` here?
A: inactive

Q: For `Cc1ccccc1/C=C/C(=O)c1ccc([N+](=O)[O-])o1`, which EC50 is on record?
A: 9.86 µM

Q: `S=C(Nc1ccccn1)c1ccccn1` was tested. Which EC50 did it give?
A: 10.4 µM

Q: How did the EC50 turn out when `N#C/C(=C\c1ccc(OCc2ccccc2)cc1)C(=O)Nc1nc2c(s1)CCN(Cc1ccccc1)C2` was run?
A: inactive

Q: For `Nc1nnnn1/N=C/C(Br)=C/c1ccccc1`, which EC50 is on record?
A: 2.22 µM

Q: Which EC50 does the source give for `Cc1ccc(S(=O)(=O)Nc2cccc3cccnc23)cc1` here?
A: 4.41 µM

Q: `FC(F)(F)c1nnc2c(Sc3ccccc3)nc3ccc(Cl)cc3n12` was tested. Which EC50 did it give?
A: 3.97 µM

Q: With `CCOc1cc(/C=C2\CN(CC)C/C(=C\c3ccc(O)c(OCC)c3)C2=O)ccc1O` as the molecule, how does the EC50 read?
A: 6.25 µM

Q: `Cc1cc(C)nc(SCc2ccc(C(=O)N/N=C/c3cccc(O)c3O)cc2)n1` was tested. Which EC50 did it give?
A: 10.1 µM

Q: With `O=C(/C=C/Sc1ccccc1)c1ccc(Cl)cc1` as the molecule, how does the EC50 read?
A: 10.6 µM

Q: For `COC(=O)C1=C(C)N(c2ccc(C)c(C)c2)/C(=C/c2ccco2)C1=O`, which EC50 is on record?
A: 8.53 µM

Q: With `COc1ccc2cc1Oc1ccc(cc1)CC1c3c(cc(OC)c4c3Oc3cc5c(cc3O4)CCNC5C2)CCN1C` (stereo not given) as the molecule, how does the EC50 read?
A: > 80 µM (inactive)

Q: `O=C(N/N=C/c1ccccn1)c1cc([N+](=O)[O-])cc([N+](=O)[O-])c1` was tested. Which EC50 did it give?
A: inactive

Q: With `Brc1ccc(-c2ccc(/C=N/Nc3nncc(-c4ccccc4)n3)o2)cc1` as the molecule, how does the EC50 read?
A: 19 µM

Q: For `Cc1cccc(/C=C/C(=O)c2ccc([N+](=O)[O-])o2)c1`, which EC50 is on record?
A: 7.44 µM

Q: How did the EC50 turn out when `O=C(Nc1nc(-c2ccccn2)cs1)c1cc(Cl)ccc1[N+](=O)[O-]` was run?
A: 6.29 µM

— PubChem BioAssay AID489024 (Sanford-Burnham Center for Chemical Genomics, 2010)
